The subject of data set [1] is J774.A1. Kind of data set: Antiinflammatory activity against LPS-induced mouse J774.A1 cells assessed as reduction in p65 nuclear translocation at 20 uM incubated for 2 hrs by DAPI staining based immunofluorescence analysis. The class given is functional, cell-based.
Data set [2] deals with J774.A1. Description: Antiinflammatory activity against mouse J774.A1 cells assessed as inhibition of LPS-induced TNF-alpha release preincubated with compound for 30 mins followed by LPS-induction and measured after 24 hrs by ELISA analysis. The class given is functional, cell-based. Background: In an ELISA, binding on a coated surface is turned into a signal by an enzyme label.

Data set [3] concerns J774.A1. Kind of data set: Antiinflammatory activity against LPS-induced mouse J774.A1 cells assessed as downregulation of IL-6 mRNA level preincubated with compound for 30 mins followed by LPS-induction and measured after 6 hrs by qPCR analysis. To be noted: time 390.0 min. The class given is functional, cell-based. On the technique in general: Quantitative PCR measures a nucleic acid by following its amplification.

Data set [4] deals with Mus musculus. Kind of data set: Antiinflammatory activity against LPS-induced acute lung injury C57BL/6 mouse model assessed as pulmonary congestion in lung at 20 mg/kg, IG preincubated with compound for 30 mins followed by LPS-induction and measured after 6 hrs by H and E staining based analysis. The class given is functional, organism-based. To be noted: time 390.0 min.

For data set [5], the system named is Mus musculus. Kind of data set: Antiinflammatory activity against LPS-induced acute lung injury C57BL/6 mouse model assessed as suppression of TNF-alpha level in BALF at 20 mg/kg, IG preincubated with compound for 30 mins followed by LPS-induction and measured after 6 hrs by ELISA analysis. The class given is functional, organism-based. To be noted: time 390.0 min.

For data set [6], the system named is Mus musculus. Kind of data set: Antiinflammatory activity against LPS-induced acute lung injury C57BL/6 mouse model assessed as suppression of IL-6 level in BALF at 20 mg/kg, IG preincubated with compound for 30 mins followed by LPS-induction and measured after 6 hrs by ELISA analysis. Conditions: time 390.0 min. The class given is functional, organism-based.

The subject of data set [7] is Mus musculus. Description: Antiinflammatory activity against LPS-induced acute lung injury C57BL/6 mouse model assessed as decrease in IL-6 mRNA level in lung at 20 mg/kg, IG preincubated with compound for 30 mins followed by LPS-induction and measured after 6 hrs by qPCR analysis. The class given is functional, organism-based. Conditions: time 390.0 min.
The test system of data set [8] is Mus musculus. Description: Antiinflammatory activity against DSS-induced acute colitis C57BL/6 mouse model assessed as reduction in crypt necrosis in colon at 5 mg/kg, po pretreated with DSS for 7 days followed by compound addition for every day for 10 days by H and E staining based analysis. The class given is functional, organism-based. To be noted: time 10.0 day.

The nature of data set [9]: Tmax in Sprague-Dawley rat at 10 mg/kg, po measured upto 24 hrs by LC-MS analysis. The class given is ADME, organism-based. To be noted: in vivo.
The nature of data set [10]: Apparent volume of distribution in Sprague-Dawley rat at 1 mg/kg, iv measured upto 24 hrs by LC-MS analysis. Conditions: in vivo, read-out: Vz. The class given is ADME, organism-based.

Each structure is given as a SMILES string. Calls of active or inactive are those of the source. No cut-off for these calls is given here.

One may read the IC50 as the midpoint of a concentration-inhibition curve. Broadly, the Tmax is the time from dosing to the highest level.

For `O=[N+]([O-])c1ccc(N2CCN(c3ccc(S(=O)(=O)NCc4ccccn4)cc3[N+](=O)[O-])CC2)cc1`, the result in the data set on J774.A1 [1], with J774.A1 [3], in the data set with Mus musculus [4], in the data set with Mus musculus [5], with Mus musculus [6] and in the data set with Mus musculus [7] was Active. For the same compound, in the data set on Mus musculus [8], the result was Active. For the same compound, in the data set on J774.A1 [2], the IC50 stood at 4.34 µM. Further, the Tmax in data set [9] turned out to be 2.8 h. For the same compound, the Vd in data set [10] amounted to 2.3 L/kg.
